In US10544146B2, “Bicyclic compounds and their use as antibacterial agents and β-lactamase inhibitors” (priority 2011, dated 2020):

Key:
Type in all cases: cell-based
A. baumanii JMI 2659 = experiment: MIC, antibacterial and synergistic activity; conditions: substance alone
Method: (§1) In the Tables 10-12, compounds of the present invention were tested in combination with various antibiotics against metallo β-lactamase producing bacteria.

E. cloacae JMI 36 = experiment: MIC, antibacterial and synergistic activity; conditions: substance alone
Method: as §1

E. coli ATCC 25922 = experiment: MIC, antibacterial and synergistic activity
Method: as §1

E. coli JMI 10767 = experiment: MIC, antibacterial and synergistic activity; conditions: substance alone
Method: as §1

E. coli JMI 2671 = experiment: MIC, antibacterial and synergistic activity; conditions: substance alone
Method: as §1

E. coli JMI 2692 = experiment: MIC, antibacterial and synergistic activity; conditions: substance alone
Method: as §1

K. pneumo JMI 2693 = experiment: MIC, antibacterial and synergistic activity; conditions: substance alone
Method: as §1

K. pneumo JMI 2697 = experiment: MIC, antibacterial and synergistic activity; conditions: substance alone
Method: as §1

K. pneumo JMI 2699 = experiment: MIC, antibacterial and synergistic activity; conditions: substance alone
Method: as §1

P. aerug JMI 149 = experiment: MIC, antibacterial and synergistic activity; conditions: substance alone
Method: as §1

E. coli JMI 4103 = experiment: MIC, antibacterial and synergistic activity; conditions: substance alone
E. coli JMI 4080 = experiment: MIC, antibacterial and synergistic activity; conditions: substance alone
E. coli JMI 2665 = experiment: MIC, antibacterial and synergistic activity; conditions: substance alone
K. pneumo JMI 4109 = experiment: MIC, antibacterial and synergistic activity; conditions: substance alone
K. pneumo JMI 2673 = experiment: MIC, antibacterial and synergistic activity; conditions: substance alone
K. pneumo JMI 2674 = experiment: MIC, antibacterial and synergistic activity; conditions: substance alone
K. pneumo JMI 4088 = experiment: MIC, antibacterial and synergistic activity; conditions: substance alone
K. pneumo JMI 4106 = experiment: MIC, antibacterial and synergistic activity; conditions: substance alone
K. pneumo JMI 2681 = experiment: MIC, antibacterial and synergistic activity; conditions: substance alone
P. aerug JMI 2686 = experiment: MIC, antibacterial and synergistic activity; conditions: substance alone
E. coli JMI 10768 = experiment: MIC, antibacterial and synergistic activity; conditions: substance alone
E. coli JMI 10770 = experiment: MIC, antibacterial and synergistic activity; conditions: substance alone
E. coli JMI 11103 = experiment: MIC, antibacterial and synergistic activity; conditions: substance alone
[1] = system: metallo β-lactamase producing bacteria; experiment: MIC in combination with various antibiotics against metallo β-lactamase producing bacteria (Tables 10-12); conditions: substance alone
Method: as §1

## CC(C)(O/N=C(\C(=O)N[C@@H]1C(=O)N2C(C(=O)[O-])=C(C[n+]3ccccc3)CS[C@H]12)c1csc(N)n1)C(=O)O [Ceftazidime, ceftazidime]
A. baumanii JMI 2659; A. baumanii JMI 2659, Ges-14 (Cpase)
  MIC alone: 512 µg/mL
A. baumanii JMI 2659; A. baumanii JMI 2659, enzyme Ges-14 (Cpase)
  MIC alone: 512 µg/mL
E. cloacae JMI 36; E. cloacae JMI 36, P99
  MIC alone: 128 µg/mL
E. cloacae JMI 36; E. cloacae JMI 36, enzyme P99
  MIC alone: 128 µg/mL
E. coli ATCC 25922; E. coli ATCC 25922, enzyme Wt; substance alone
  MIC alone: 0.25 µg/mL
E. coli ATCC 25922; E. coli ATCC 25922; enzyme Wt; substance alone
  MIC alone: 0.25 µg/mL
E. coli JMI 10767; E. coli JMI 10767, Wt
  MIC alone: ≤1 µg/mL
E. coli JMI 10767; E. coli JMI 10767, enzyme Wt
  MIC alone: ≤1 µg/mL
E. coli JMI 2671; E. coli JMI 2671, VIM-19 (Cpase)
  MIC alone: 64 µg/mL
E. coli JMI 2671; E. coli JMI 2671, enzyme VIM-19 (Cpase)
  MIC alone: 64 µg/mL
E. coli JMI 2692; E. coli JMI 2692, NDM-1, TEM-1, CTX-M-15
  MIC alone: >512 µg/mL
E. coli JMI 2692; E. coli JMI 2692, enzyme NDM-1, TEM-1, CTX-M-15
  MIC alone: >512 µg/mL
K. pneumo JMI 2693; K. pneumo JMI 2693, NDM-1 (Cpase)
  MIC alone: >512 µg/mL
K. pneumo JMI 2693; K. pneumo JMI 2693, enzyme NDM-1 (Cpase)
  MIC alone: >512 µg/mL
K. pneumo JMI 2697; K. pneumo JMI 2697, IMP-4 (Cpase)
  MIC alone: >512 µg/mL
K. pneumo JMI 2697; K. pneumo JMI 2697, enzyme IMP-4 (Cpase)
  MIC alone: >512 µg/mL
K. pneumo JMI 2699; K. pneumo JMI 2699, VIM-1, CTX-M3
  MIC alone: >512 µg/mL
K. pneumo JMI 2699; K. pneumo JMI 2699, enzyme VIM-1, CTX-M3
  MIC alone: >512 µg/mL
P. aerug JMI 149; P. aerug JMI 149, Bla+++D+
  MIC alone: 256 µg/mL
P. aerug JMI 149; P. aerug JMI 149, enzyme Bla+++D+
  MIC alone: 256 µg/mL
E. coli JMI 4103; E. coli JMI 4103, KPC-2, Tem-1, CMY-Type
  MIC alone: >512 µg/mL
E. coli JMI 4103; E. coli JMI 4103, enzyme KPC-2, Tem-1, CMY-Type
  MIC alone: >512 µg/mL
E. coli JMI 4080; E. coli JMI 4080, Tem-10
  MIC alone: 64 µg/mL
E. coli JMI 4080; E. coli JMI 4080, enzyme Tem-10
  MIC alone: 64 µg/mL
E. coli JMI 2665; E. coli JMI 2665, CMY-2 (Plasmid Cpase)
  MIC alone: 8 µg/mL
E. coli JMI 2665; E. coli JMI 2665, enzyme CMY-2 (Plasmid Cpase)
  MIC alone: 8 µg/mL
K. pneumo JMI 4109; K. pneumo JMI 4109, SHV-1, SHV-12
  MIC alone: 8 µg/mL
K. pneumo JMI 4109; K. pneumo JMI 4109, enzyme SHV-1, SHV-12
  MIC alone: 8 µg/mL
K. pneumo JMI 2673; K. pneumo JMI 2673, CTX-M14 (ESBL)
  MIC alone: 32 µg/mL
K. pneumo JMI 2673; K. pneumo JMI 2673, enzyme CTX-M14 (ESBL)
  MIC alone: 32 µg/mL
K. pneumo JMI 2674; K. pneumo JMI 2674, CTX-M15 (ESBL)
  MIC alone: 512 µg/mL
K. pneumo JMI 2674; K. pneumo JMI 2674, enzyme CTX-M15 (ESBL)
  MIC alone: 512 µg/mL
K. pneumo JMI 4088; K. pneumo JMI 4088, KPC-3 (Cpase)
  MIC alone: >512 µg/mL
K. pneumo JMI 4088; K. pneumo JMI 4088, enzyme KPC-3 (Cpase)
  MIC alone: >512 µg/mL
K. pneumo JMI 4106; K. pneumo JMI 4106, KPC-3, TEM-1, SHV-12, SHV-141
  MIC alone: >512 µg/mL
K. pneumo JMI 4106; K. pneumo JMI 4106, enzyme KPC-3, TEM-1, SHV-12, SHV-141
  MIC alone: >512 µg/mL
K. pneumo JMI 2681; K. pneumo JMI 2681, Oxa-48 (Cpase)
  MIC alone: 512 µg/mL
K. pneumo JMI 2681; K. pneumo JMI 2681, enzyme Oxa-48 (Cpase)
  MIC alone: 512 µg/mL
P. aerug JMI 2686; P. aerug JMI 2686, KPC-2 (Cpase)
  MIC alone: 512 µg/mL
P. aerug JMI 2686; P. aerug JMI 2686, enzyme KPC-2 (Cpase)
  MIC alone: 512 µg/mL
E. coli JMI 10768; E. coli JMI 10768, CTX-M15 (Weak ESBL)
  MIC alone: 8 µg/mL
E. coli JMI 10768; E. coli JMI 10768, enzyme CTX-M15 (Weak ESBL)
  MIC alone: 8 µg/mL
E. coli JMI 10770; E. coli JMI 10770, CTX-M15 (Hyper ESBL)
  MIC alone: 64 µg/mL
E. coli JMI 10770; E. coli JMI 10770, enzyme CTX-M15 (Hyper ESBL)
  MIC alone: 64 µg/mL
E. coli JMI 11103; E. coli JMI 11103, CTX-M15 (Intermediate ESBL)
  MIC alone: 32 µg/mL
E. coli JMI 11103; E. coli JMI 11103, enzyme CTX-M15 (Intermediate ESBL)
  MIC alone: 32 µg/mL
[1]; Citrobacter freundii isolate 49469, NDM-1
  MIC alone: >256 µg/mL
[1]; Enterobacter aerogenes isolate 8397, VIM-1
  MIC alone: >256 µg/mL
[1]; Enterobacter aerogenes isolate 47683, VIM-12
  MIC alone: 256 µg/mL
[1]; Enterobacter cloacae isolate 4, VIM-6
  MIC alone: 256 µg/mL
[1]; Enterobacter cloacae isolate 10, IMP-26
  MIC alone: >256 µg/mL
[1]; Enterobacter cloacae isolate 25, IMP-4
  MIC alone: >256 µg/mL
[1]; Enterobacter cloacae isolate 1068, VIM-2
  MIC alone: 128 µg/mL
[1]; Enterobacter cloacae isolate 1280, VIM-5
  MIC alone: 64 µg/mL
[1]; Enterobacter cloacae isolate 1471, VIM-1
  MIC alone: >256 µg/mL
[1]; Enterobacter cloacae isolate 1874, IMP-21
  MIC alone: 32 µg/mL
[1]; Enterobacter cloacae isolate 3686, IMP-1
  MIC alone: >256 µg/mL
[1]; Enterobacter cloacae isolate 53477, NDM-1
  MIC alone: >256 µg/mL
[1]; Escherichia coli isolate 13, IMP-1
  MIC alone: 256 µg/mL
[1]; Escherichia coli isolate 17, NDM-1
  MIC alone: >256 µg/mL
[1]; Escherichia coli isolate 49, NDM-1
  MIC alone: >256 µg/mL
[1]; Escherichia coli isolate 53749, NDM-1
  MIC alone: >256 µg/mL
[1]; Klebsiella oxytoca isolate 24825, IMP-26
  MIC alone: >256 µg/mL
[1]; Klebsiella oxytoca isolate 31141, VIM-23
  MIC alone: 128 µg/mL
[1]; Klebsiella pneumoniae isolate 16, VIM-5
  MIC alone: >256 µg/mL
[1]; Klebsiella pneumoniae isolate 38, NDM-1
  MIC alone: >256 µg/mL
[1]; Providencia stuartii isolate 26582, VIM-1
  MIC alone: >256 µg/mL
[1]; Serratia marcescens isolate 35, IMP-4
  MIC alone: 64 µg/mL
[1]; Serratia marcescens isolate 36098, IMP-19
  MIC alone: 128 µg/mL
